In ChEMBL document CHEMBL1777747, “Design and synthesis of an ER-specific fluorescent probe based on carboxylesterase activity with quinone methide cleavage process” (Bioorg Med Chem Lett, 2011) one finds Activity data, which are given here for one compound.

The species entered for one data set is Sus scrofa. Kind of data set: Activity at porcine liver esterase assessed as amount of enzyme required to liberate 1 umol of resorufin/min from compound by fluorescence assay.
For data set [1], the target named is T1, Cocaine esterase (Homo sapiens, UniProt O00748).
T1 sequence (O00748 whole entry): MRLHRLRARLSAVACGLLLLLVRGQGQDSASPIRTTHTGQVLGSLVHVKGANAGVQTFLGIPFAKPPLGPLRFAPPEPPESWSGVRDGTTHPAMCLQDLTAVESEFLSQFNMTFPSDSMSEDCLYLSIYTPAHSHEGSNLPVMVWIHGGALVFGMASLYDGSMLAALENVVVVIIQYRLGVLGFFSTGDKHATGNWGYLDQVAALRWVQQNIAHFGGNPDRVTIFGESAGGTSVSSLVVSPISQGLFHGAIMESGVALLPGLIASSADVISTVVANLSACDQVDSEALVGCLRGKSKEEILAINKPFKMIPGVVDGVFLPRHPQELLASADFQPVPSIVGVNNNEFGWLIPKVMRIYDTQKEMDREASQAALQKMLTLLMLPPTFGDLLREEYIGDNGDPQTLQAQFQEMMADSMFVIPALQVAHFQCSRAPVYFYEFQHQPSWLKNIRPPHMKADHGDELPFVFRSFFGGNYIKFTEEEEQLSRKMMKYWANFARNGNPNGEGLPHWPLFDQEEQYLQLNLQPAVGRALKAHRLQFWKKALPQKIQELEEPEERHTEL
Kind of data set: Activity at carboxylesterase in human HT-1080 cells assessed as accumulation of resorufin in nucleus at 50 uM after 120 mins by phase contrast microscopic analysis. It is filed as ADME, cell-based. The conditions noted are these: ht-1080, 2 h.

Data set [2] can be described thus: Activity at carboxylesterase in african green monkey COS1 cells assessed as accumulation of resorufin in nucleus at 50 uM after 120 mins by phase contrast microscopic analysis. It is filed as ADME, cell-based. The settings on record: chlorocebus aethiops, cos-1, 2 h.
For data set [3], the target named is T1, Cocaine esterase. Kind of data set: Activity at carboxylesterase in human HT-1080 cells assessed as accumulation of resorufin in endoplasmic reticulum at 50 uM after 120 mins by phase contrast microscopic analysis. It is filed as ADME, cell-based. The conditions noted are these: ht-1080, 2 h.
A short description of data set [4]: Activity at carboxylesterase in african green monkey COS1 cells assessed as accumulation of resorufin in endoplasmic reticulum at 50 uM after 120 mins by phase contrast microscopic analysis. The conditions noted are these: chlorocebus aethiops, cos-1, 2 h. It is filed as ADME, cell-based.
The subject of another data set is HT-1080. Kind of data set: Cytotoxicity against human HT1080 cells by trypan blue method. It is filed as cell-based.
The subject of another data set is COS-1. Kind of data set: Cytotoxicity against african green monkey COS1 cells by trypan blue method. It is filed as cell-based. The conditions noted are these: chlorocebus aethiops.

Consider `CCCC(=O)Oc1ccc(COc2ccc3nc4ccc(=O)cc-4oc3c2)cc1`, for which the Activity was 0.05 U/mg in the data set filed under Sus scrofa; “Active” on Cocaine esterase [1]; “Active” in data set [2]; “Active” on Cocaine esterase [3]; “Active” in data set [4]; “Non-toxic” in the data set on HT-1080. Also, in the data set on COS-1, the Activity result is recorded as “Non-toxic”.
